Measured values reported in paper PMC10482691, “LTP induction by structural rather than enzymatic functions of CaMKII” (Nature, 2023).
Where “and” joins values, the source holds several entries; their conditions need not be identical. Equal entries are not always repeated.

Key:
FGFR1(h) = FGFR1(h) (Homo sapiens, UniProt P11362); assay: Kinase selectivity panel (residual activity at 1 μM); type: biochemical; settings: inhibitor at 1 μM; read-out: residual kinase activity in % of maximal activity
CaMKIIδ(h) = CaMKIIδ(h) (Homo sapiens, UniProt Q13557); assay: as above; type: biochemical; settings: inhibitor at 1 μM; read-out: residual kinase activity in % of maximal activity
MAPK2(h) = MAPK2(h) (Homo sapiens, UniProt P28482); assay: as above; type: biochemical; settings: inhibitor at 1 μM; read-out: residual kinase activity in % of maximal activity
Chain of MAPK2(h) (P28482 whole entry): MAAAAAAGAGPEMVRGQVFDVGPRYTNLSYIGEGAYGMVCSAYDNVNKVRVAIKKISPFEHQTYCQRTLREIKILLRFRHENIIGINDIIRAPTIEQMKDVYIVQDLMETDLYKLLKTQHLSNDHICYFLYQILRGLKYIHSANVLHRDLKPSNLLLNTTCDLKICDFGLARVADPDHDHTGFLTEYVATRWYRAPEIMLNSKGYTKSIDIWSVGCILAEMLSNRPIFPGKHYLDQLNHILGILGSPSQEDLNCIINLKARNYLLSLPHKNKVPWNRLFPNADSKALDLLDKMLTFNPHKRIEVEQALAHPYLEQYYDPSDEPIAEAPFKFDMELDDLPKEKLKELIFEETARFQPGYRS

CaMKIV(h) = CaMKIV(h) (Homo sapiens, UniProt Q16566); assay: as above; type: biochemical; settings: inhibitor at 1 μM; read-out: residual kinase activity in % of maximal activity
cKit(h) = cKit(h) (Homo sapiens, UniProt P10721); assay: as above; type: biochemical; settings: inhibitor at 1 μM; read-out: residual kinase activity in % of maximal activity
MAPK1(h) = MAPK1(h) (Homo sapiens, UniProt P27361); assay: as above; type: biochemical; settings: inhibitor at 1 μM; read-out: residual kinase activity in % of maximal activity
CDK2/cyclinE(h) = CDK2/cyclinE(h) (Homo sapiens, UniProt P24941); assay: as above; type: biochemical; settings: inhibitor at 1 μM
CaMKIIγ(h) = CaMKIIγ(h) (Homo sapiens, UniProt Q13555); assay: as above; type: biochemical; settings: inhibitor at 1 μM; read-out: residual kinase activity in % of maximal activity
JNK2α2(h) = JNK2α2(h) (Homo sapiens, UniProt P45984); assay: as above; type: biochemical; settings: inhibitor at 1 μM
Pim-3(h) = Pim-3(h) (Homo sapiens, UniProt Q86V86); assay: as above; type: biochemical; settings: inhibitor at 1 μM; read-out: residual kinase activity in % of maximal activity
Arg(h) = Arg(h) (Homo sapiens, UniProt P42684); assay: as above; type: biochemical; settings: inhibitor at 1 μM; read-out: residual kinase activity in % of maximal activity
SGK(h) = SGK(h) (Homo sapiens, UniProt O00141); assay: as above; type: biochemical; settings: inhibitor at 1 μM; read-out: residual kinase activity in % of maximal activity
Chain of SGK(h) (O00141 whole entry): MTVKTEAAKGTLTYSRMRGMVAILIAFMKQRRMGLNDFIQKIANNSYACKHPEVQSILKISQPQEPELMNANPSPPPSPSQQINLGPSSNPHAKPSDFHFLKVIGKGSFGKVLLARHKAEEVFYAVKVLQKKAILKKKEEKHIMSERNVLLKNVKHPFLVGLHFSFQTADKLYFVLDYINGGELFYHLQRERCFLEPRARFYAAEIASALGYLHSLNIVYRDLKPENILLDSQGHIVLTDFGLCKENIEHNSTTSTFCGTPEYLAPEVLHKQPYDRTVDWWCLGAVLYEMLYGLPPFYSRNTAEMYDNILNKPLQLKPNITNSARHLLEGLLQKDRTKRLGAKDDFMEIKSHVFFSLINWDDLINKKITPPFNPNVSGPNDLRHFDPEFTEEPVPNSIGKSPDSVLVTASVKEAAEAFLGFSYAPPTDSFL

CaMKIIβ(h) = CaMKIIβ(h) (Homo sapiens, UniProt Q13554); assay: as above; type: biochemical; settings: inhibitor at 1 μM; read-out: residual kinase activity in % of maximal activity
FAK(h) = FAK(h) (Homo sapiens, UniProt Q05397); assay: as above; type: biochemical; settings: inhibitor at 1 μM; read-out: residual kinase activity in % of maximal activity
GSK3β(h) = GSK3β(h) (Homo sapiens, UniProt P49841); assay: as above; type: biochemical; settings: inhibitor at 1 μM; read-out: residual kinase activity in % of maximal activity
PKCδ(h) = PKCδ(h) (Homo sapiens, UniProt Q05655); assay: as above; type: biochemical; settings: inhibitor at 1 μM; read-out: residual kinase activity in % of maximal activity
AMPKα1(h) = AMPKα1(h) (Homo sapiens, UniProt Q13131); assay: as above; type: biochemical; settings: inhibitor at 1 μM; read-out: residual kinase activity in % of maximal activity
CaMKI(h) = CaMKI(h) (Homo sapiens, UniProt Q14012); assay: as above; type: biochemical; settings: inhibitor at 1 μM; read-out: residual kinase activity in % of maximal activity
Chain of CaMKI(h) (Q14012 whole entry): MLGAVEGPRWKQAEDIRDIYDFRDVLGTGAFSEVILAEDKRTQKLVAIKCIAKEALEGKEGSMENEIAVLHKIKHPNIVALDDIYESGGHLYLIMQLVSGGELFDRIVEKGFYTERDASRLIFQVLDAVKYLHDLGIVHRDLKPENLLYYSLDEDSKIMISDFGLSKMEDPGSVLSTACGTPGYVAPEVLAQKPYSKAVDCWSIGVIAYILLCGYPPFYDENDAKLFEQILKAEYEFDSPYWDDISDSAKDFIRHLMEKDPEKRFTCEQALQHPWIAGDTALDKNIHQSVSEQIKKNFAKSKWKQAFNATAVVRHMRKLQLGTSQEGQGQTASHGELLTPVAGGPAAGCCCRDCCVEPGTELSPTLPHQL

PAK2(h) = PAK2(h) (Homo sapiens, UniProt Q13177); assay: as above; type: biochemical; settings: inhibitor at 1 μM; read-out: residual kinase activity in % of maximal activity
Pim-1(h) = Pim-1(h) (Homo sapiens, UniProt P11309); assay: as above; type: biochemical; settings: inhibitor at 1 μM; read-out: residual kinase activity in % of maximal activity
IGF-1R(h) = IGF-1R(h) (Homo sapiens, UniProt P08069); assay: as above; type: biochemical; settings: inhibitor at 1 μM; read-out: residual kinase activity in % of maximal activity
Ret(h) = Ret(h) (Homo sapiens, UniProt P07949); assay: as above; type: biochemical; settings: inhibitor at 1 μM; read-out: residual kinase activity in % of maximal activity
PKCα(h) = PKCα(h) (Homo sapiens, UniProt P17252); assay: as above; type: biochemical; settings: inhibitor at 1 μM; read-out: residual kinase activity in % of maximal activity
KDR(h) = KDR(h) (Homo sapiens, UniProt P35968); assay: as above; type: biochemical; settings: inhibitor at 1 μM; read-out: residual kinase activity in % of maximal activity
PDK1(h) = PDK1(h) (Homo sapiens, UniProt O15530); assay: as above; type: biochemical; settings: inhibitor at 1 μM; read-out: residual kinase activity in % of maximal activity
CDK5/p35(h) = CDK5/p35(h) (Homo sapiens, UniProt Q00535); assay: as above; type: biochemical; settings: inhibitor at 1 μM; read-out: residual kinase activity in % of maximal activity
SAPK2a(h) = SAPK2a(h) (Homo sapiens, UniProt Q16539); assay: as above; type: biochemical; settings: inhibitor at 1 μM
GSK3α(h) = GSK3α(h) (Homo sapiens, UniProt P49840); assay: as above; type: biochemical; settings: inhibitor at 1 μM; read-out: residual kinase activity in % of maximal activity
Flt3(h) = Flt3(h) (Homo sapiens, UniProt P36888); assay: as above; type: biochemical; settings: inhibitor at 1 μM; read-out: residual kinase activity in % of maximal activity
PKG1β(h) = PKG1β(h) (Homo sapiens, UniProt Q13976); assay: as above; type: biochemical; settings: inhibitor at 1 μM; read-out: residual kinase activity in % of maximal activity
p70S6K(h) = p70S6K(h) (Homo sapiens, UniProt P23443); assay: as above; type: biochemical; settings: inhibitor at 1 μM; read-out: residual kinase activity in % of maximal activity
[1] = system: GFP–CaMKII in rat hippocampal neurons; assay: cLTP-induced CaMKII synaptic enrichment in dissociated hippocampal cultures (GFP–CaMKII WT); type: cell-based; settings: AS105
JAK2(h) = JAK2(h) (Homo sapiens, UniProt O60674); assay: Kinase selectivity panel (residual activity at 1 μM); type: biochemical; settings: inhibitor at 1 μM
ROCK-II(h) = ROCK-II(h) (Homo sapiens, UniProt O75116); assay: as above; type: biochemical; settings: inhibitor at 1 μM; read-out: residual kinase activity in % of maximal activity
mTOR(h) = mTOR(h) (Homo sapiens, UniProt P42345); assay: as above; type: biochemical; settings: inhibitor at 1 μM; read-out: residual kinase activity in % of maximal activity
JAK3(h) = JAK3(h) (Homo sapiens, UniProt P52333); assay: as above; type: biochemical; settings: inhibitor at 1 μM; read-out: residual kinase activity in % of maximal activity
[2] = target: PI3 Kinase (p110a/p85a)(h) (Homo sapiens, UniProt P42336); assay: as above; type: biochemical; settings: inhibitor at 1 μM; read-out: residual kinase activity in % of maximal activity
Chain of PI3 Kinase (p110a/p85a)(h) (P42336 whole entry): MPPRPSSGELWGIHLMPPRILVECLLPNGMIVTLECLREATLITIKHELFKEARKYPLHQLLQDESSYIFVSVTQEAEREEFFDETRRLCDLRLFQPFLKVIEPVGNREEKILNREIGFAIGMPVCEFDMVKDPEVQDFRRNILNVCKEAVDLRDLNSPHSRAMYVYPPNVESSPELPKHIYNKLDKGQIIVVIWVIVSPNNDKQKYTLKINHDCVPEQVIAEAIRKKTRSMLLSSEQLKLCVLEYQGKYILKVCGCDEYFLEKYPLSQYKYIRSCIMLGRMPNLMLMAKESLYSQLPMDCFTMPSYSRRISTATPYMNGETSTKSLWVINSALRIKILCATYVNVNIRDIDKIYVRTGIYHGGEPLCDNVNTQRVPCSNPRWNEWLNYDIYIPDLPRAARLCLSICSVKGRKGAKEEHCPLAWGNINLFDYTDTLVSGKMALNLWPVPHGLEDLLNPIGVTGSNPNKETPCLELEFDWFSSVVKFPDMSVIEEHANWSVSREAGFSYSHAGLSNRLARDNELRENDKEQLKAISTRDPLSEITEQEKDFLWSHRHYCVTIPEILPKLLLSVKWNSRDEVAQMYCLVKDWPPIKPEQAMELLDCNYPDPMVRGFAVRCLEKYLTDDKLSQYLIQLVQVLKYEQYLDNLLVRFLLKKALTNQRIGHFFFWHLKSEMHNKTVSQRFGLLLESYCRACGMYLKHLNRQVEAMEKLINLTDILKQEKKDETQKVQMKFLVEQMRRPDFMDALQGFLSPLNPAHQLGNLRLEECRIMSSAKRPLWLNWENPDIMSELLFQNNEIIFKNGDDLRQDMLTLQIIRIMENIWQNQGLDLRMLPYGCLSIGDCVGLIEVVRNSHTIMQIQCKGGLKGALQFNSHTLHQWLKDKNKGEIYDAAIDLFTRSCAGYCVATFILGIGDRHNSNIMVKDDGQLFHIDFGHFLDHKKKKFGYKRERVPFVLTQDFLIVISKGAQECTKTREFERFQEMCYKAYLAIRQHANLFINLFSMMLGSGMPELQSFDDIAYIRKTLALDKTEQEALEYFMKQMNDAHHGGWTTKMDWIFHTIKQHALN
Chain of PI3 Kinase (p110a/p85a)(h) (P27986 whole entry partner): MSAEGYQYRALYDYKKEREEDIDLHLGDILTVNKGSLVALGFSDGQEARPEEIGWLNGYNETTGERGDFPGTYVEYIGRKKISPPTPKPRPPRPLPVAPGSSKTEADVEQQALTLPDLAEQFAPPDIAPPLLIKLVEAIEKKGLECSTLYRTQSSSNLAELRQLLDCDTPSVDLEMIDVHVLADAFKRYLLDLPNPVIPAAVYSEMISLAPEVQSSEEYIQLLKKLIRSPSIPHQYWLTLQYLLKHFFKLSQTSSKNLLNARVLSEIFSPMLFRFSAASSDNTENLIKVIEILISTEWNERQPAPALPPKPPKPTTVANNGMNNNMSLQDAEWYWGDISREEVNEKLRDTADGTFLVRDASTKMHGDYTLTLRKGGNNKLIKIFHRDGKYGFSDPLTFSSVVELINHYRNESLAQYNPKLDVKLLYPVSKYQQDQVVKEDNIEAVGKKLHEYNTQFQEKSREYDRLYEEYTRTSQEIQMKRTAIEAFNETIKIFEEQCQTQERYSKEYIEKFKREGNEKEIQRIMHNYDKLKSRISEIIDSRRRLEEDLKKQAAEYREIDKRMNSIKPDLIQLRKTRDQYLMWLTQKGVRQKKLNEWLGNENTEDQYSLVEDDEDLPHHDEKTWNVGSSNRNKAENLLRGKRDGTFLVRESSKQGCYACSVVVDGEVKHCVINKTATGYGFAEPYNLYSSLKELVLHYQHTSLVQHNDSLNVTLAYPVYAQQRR

PKBγ(h) = PKBγ(h) (Homo sapiens, UniProt Q9Y243); assay: as above; type: biochemical; settings: inhibitor at 1 μM; read-out: residual kinase activity in % of maximal activity
MEK1(h) = MEK1(h) (Homo sapiens, UniProt Q02750); assay: as above; type: biochemical; settings: inhibitor at 1 μM; read-out: residual kinase activity in % of maximal activity
[3] = target: purified CaMKIIα binding to GST–GluN2B-c WT (Homo sapiens, UniProt Q9UQM7); assay: CaMKII binding to immobilized GST–GluN2B-c in vitro
Protocol: CaMKII–GluN2B binding assays were done as described[9],[13],[25]. Briefly, GST–GluN2B-c tail (GST–2BC) was immobilized on anti-GST antibody-coated microtiter plates (Thermo Scientific), blocked for 30 min with 5% BSA and then overlaid with […] CaMKII (subunit concentration) in PIPES-buffered saline (pH 7.2) containing 2 mM Ca^2+, 1 μM CaM, 1 mM Mg^2+, 0.1% BSA and 0.1% Tween-20 for 20 min at room temperature. […] After extensive washes in buffer containing 1 mM EGTA, GST–2BC and bound CaMKII were eluted for 10 min in SDS loading buffer at 95 °C. Bound CaMKII was measured via immunoblot.

Aurora-C(h) = Aurora-C(h) (Homo sapiens, UniProt Q9UQB9); assay: Kinase selectivity panel (residual activity at 1 μM); type: biochemical; settings: inhibitor at 1 μM; read-out: residual kinase activity in % of maximal activity
PDGFRβ(h) = PDGFRβ(h) (Homo sapiens, UniProt P09619); assay: as above; type: biochemical; settings: inhibitor at 1 μM; read-out: residual kinase activity in % of maximal activity
Chain of PDGFRβ(h) (P09619 33-1106): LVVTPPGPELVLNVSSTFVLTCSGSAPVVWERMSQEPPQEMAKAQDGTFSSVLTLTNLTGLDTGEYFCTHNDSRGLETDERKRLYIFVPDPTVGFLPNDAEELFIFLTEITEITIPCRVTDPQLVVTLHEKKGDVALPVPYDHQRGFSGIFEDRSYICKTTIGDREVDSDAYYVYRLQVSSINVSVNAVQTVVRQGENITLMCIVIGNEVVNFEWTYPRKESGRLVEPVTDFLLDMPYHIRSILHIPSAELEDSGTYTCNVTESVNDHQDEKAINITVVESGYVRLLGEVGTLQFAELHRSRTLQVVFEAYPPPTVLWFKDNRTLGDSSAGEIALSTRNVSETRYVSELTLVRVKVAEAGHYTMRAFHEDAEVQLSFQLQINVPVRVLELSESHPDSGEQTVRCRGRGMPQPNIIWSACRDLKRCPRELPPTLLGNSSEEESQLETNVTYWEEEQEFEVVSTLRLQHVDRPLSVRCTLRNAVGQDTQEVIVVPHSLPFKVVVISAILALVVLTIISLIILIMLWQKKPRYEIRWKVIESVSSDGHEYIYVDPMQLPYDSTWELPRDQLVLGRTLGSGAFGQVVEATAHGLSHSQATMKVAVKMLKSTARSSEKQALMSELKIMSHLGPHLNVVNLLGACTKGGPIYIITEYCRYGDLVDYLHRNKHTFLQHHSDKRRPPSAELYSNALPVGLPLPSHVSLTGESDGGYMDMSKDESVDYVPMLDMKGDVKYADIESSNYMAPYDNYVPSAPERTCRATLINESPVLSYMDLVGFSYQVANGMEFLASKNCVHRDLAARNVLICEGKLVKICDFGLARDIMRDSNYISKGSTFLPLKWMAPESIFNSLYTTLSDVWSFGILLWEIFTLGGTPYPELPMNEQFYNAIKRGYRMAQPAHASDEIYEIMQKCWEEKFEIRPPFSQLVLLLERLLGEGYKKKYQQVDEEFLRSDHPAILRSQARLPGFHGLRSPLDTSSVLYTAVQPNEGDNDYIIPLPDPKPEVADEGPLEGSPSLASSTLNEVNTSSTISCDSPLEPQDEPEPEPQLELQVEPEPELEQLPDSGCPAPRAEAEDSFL

PKG1α(h) = PKG1α(h) (Homo sapiens, UniProt Q13976); assay: as above; type: biochemical; settings: inhibitor at 1 μM; read-out: residual kinase activity in % of maximal activity

NCCNc1cccc(-c2ccnc(Nc3cccc(Cl)c3)n2)c1 [AS105]
remaining activity at 1 µM (FGFR1(h)): 91% | remaining activity at 1 µM (CaMKIIδ(h)): 2% | remaining activity at 1 µM (MAPK2(h)): 106% | remaining activity at 1 µM (CaMKIV(h)): 101% | remaining activity at 1 µM (cKit(h)): 91% | remaining activity at 1 µM (MAPK1(h)): 105% | residual kinase activity in % of maximal activity (CDK2/cyclinE(h)): 2% | remaining activity at 1 µM (CaMKIIγ(h)): 2% | residual kinase activity in % of maximal activity (JNK2α2(h)): 79% | remaining activity at 1 µM (Pim-3(h)): 109% | remaining activity at 1 µM (Arg(h)): 87% | remaining activity at 1 µM (SGK(h)): 97% | remaining activity at 1 µM (CaMKIIβ(h)): 6% | remaining activity at 1 µM (FAK(h)): 75% | remaining activity at 1 µM (GSK3β(h)): 11% | remaining activity at 1 µM (PKCδ(h)): 73% | remaining activity at 1 µM (AMPKα1(h)): 38% | remaining activity at 1 µM (CaMKI(h)): 83% | remaining activity at 1 µM (PAK2(h)): 104% | remaining activity at 1 µM (Pim-1(h)): 69% | remaining activity at 1 µM (IGF-1R(h)): 121% | remaining activity at 1 µM (Ret(h)): 55% | remaining activity at 1 µM (PKCα(h)): 51% | remaining activity at 1 µM (KDR(h)): 28% | remaining activity at 1 µM (PDK1(h)): 109% | remaining activity at 1 µM (CDK5/p35(h)): 1% | residual kinase activity in % of maximal activity (SAPK2a(h)): 99% | remaining activity at 1 µM (GSK3α(h)): 6% | remaining activity at 1 µM (Flt3(h)): 2% | remaining activity at 1 µM (PKG1β(h)): 68% | remaining activity at 1 µM (p70S6K(h)): 77% | effect on stimulation-induced movement to excitatory synapses [1]: without inhibiting | residual kinase activity in % of maximal activity (JAK2(h)): 134% | remaining activity at 1 µM (ROCK-II(h)): 43% | remaining activity at 1 µM (mTOR(h)): 102% | remaining activity at 1 µM (JAK3(h)): 89% | remaining activity at 1 µM [2]: 96% | remaining activity at 1 µM (PKBγ(h)): 76% | remaining activity at 1 µM (MEK1(h)): 111% | effect on GluN2B binding ([3]; AS105): without inhibiting | bound CaMKIIα (immunoblot, relative) ([3]; Ca2+/CaM, 10 μM AS105, no nucleotide): 2.79 and 2.715 and 1.563 | remaining activity at 1 µM (Aurora-C(h)): 57% | remaining activity at 1 µM (PDGFRβ(h)): 80% | remaining activity at 1 µM (PKG1α(h)): 61%
